Measured values: patent US8993624B2, “Method of preventing and treating inflammatory diseases and disorders with abscisic acid” (Virginia Tech Intellectual Properties, Inc., priority 2010, dated 2015)

Tests used:
[1] = test system: inactivated influenza virus PR8 antigens; assay: Lymphocyte proliferation after influenza virus vaccination of mice; assay type: in vivo, mouse
[2] = test system: NF-κB p65; assay: NF-κB p65 activity in BMM stimulated with LPS/IFN-γ; assay type: cell-based, mouse
Procedure: Bone Marrow-derived Macrophage (BMM) Cultures—Bone marrow cells from PPAR γ flfl; MMTV-Cre− (flfl-Cre−) and flfl-Cre+ mice were cultured in DMEM with M-CSF (50 ng/ml) for 7 days. Fresh media with M-CSF was added on day 3. […] Following differentiation macrophages were directly stimulated with LPS (100 ng/ml) as previously described for 12 hours (21). ABA was added to macrophage cultures at a concentration of 2.5 μM. […]
NF-κB and NFAT activities—Spleens were diced into smaller pieces in lysis buffer containing dithiothreitol and a protease inhibitor cocktail and then further disrupted using a dounce ground glass homogenizer at 4° C. […] The extracts were used to perform a Bradford-based assay for quantifying the protein concentrations and stored at −80° C. NF-κB and NFATc1 activities were measured as previously described (13) by using the Trans-AM™ NF-κB p65 and the Trans-AM™ NFATc1 ELISA-based assays (Active Motif), respectively per the manufacturer's instructions.

[3] = test system: LPS-induced splenic gene expression; assay: LPS challenge in mice, spleen real-time qRT-PCR
[4] = test system: lymphocytes; assay: IL-2 production and lymphocyte proliferation (unpublished data); assay type: cell-based
[5] = test system: RXR; assay: RXR reporter activity (data not shown); assay type: cell-based
[6] = molecular target: T1, PPAR γ (Mus musculus, UniProt P37238); conditions: racemic mixture, 3T3-L1 preadipocytes; cited from earlier work
T1 construct: host or cells: 3T3-L1 preadipocytes
T1 sequence (P37238 1-505): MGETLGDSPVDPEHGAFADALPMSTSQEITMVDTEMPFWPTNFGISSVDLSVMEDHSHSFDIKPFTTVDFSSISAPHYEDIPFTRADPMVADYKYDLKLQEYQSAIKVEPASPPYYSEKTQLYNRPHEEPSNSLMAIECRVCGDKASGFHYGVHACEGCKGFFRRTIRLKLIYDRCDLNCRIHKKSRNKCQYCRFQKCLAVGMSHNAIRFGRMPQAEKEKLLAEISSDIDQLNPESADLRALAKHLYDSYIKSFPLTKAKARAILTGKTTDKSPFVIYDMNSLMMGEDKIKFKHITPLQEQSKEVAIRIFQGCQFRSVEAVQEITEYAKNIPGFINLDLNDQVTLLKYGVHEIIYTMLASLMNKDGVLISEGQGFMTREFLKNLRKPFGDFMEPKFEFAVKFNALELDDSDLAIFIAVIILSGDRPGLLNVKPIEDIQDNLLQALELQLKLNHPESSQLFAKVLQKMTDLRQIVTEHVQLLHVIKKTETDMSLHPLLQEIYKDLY

[7] = test system: LPS-induced systemic inflammation; assay: LPS challenge in mice, immune cell subsets by flow cytometry; assay type: in vivo, mouse
Procedure: Flow Cytometry—Mesenteric lymph nodes (MLN) and spleen-derived cells (2×10^5 cells/well) or whole blood (10 μL/well) were seeded onto 96-well plates, centrifuged at 4° C. at 3000 rpm for 4 minutes, and washed with PBS containing 5% fetal bovine serum and 0.09% sodium azide (FACS buffer). To assess differential monocyte/macrophage subsets, the cells were incubated in the dark at 4° C. for 20 minutes in FcBlock (20 μg/ml; BD Pharmingen), and then for an additional 20 minutes with fluorochrome-conjugated primary antibodies anti-F4/80-PE-Cy5 (5 μg/mL, eBioscience) and anti-CD 11b-Alexa Fluor 700 (2 μg/mL, eBioscience), and anti-TLR-4-PE-Cy7 (2 μg/mL, eBioscience). For lymphocyte assessment, cells were incubated with anti-CD4-FITC (2 μg/mL; BD Pharmingen), anti-CD8-PerCp-Cy5.5 (2 μg/mL, eBioscience), CD3 PE-Cy5 (2 μg/mL; BD Pharmingen), anti-TLR-4 PE-Cy7, and anti-IL17A-PE (2 μg/mL, eBioscience) as previously shown (23). Flow results were computed with a BD LSR II flow cytometer and data analyses was performed with FACS Diva software (BD).

[8] = molecular target: T2, ligand-binding domain of PPAR γ (Homo sapiens, UniProt P37231); assay: PPAR γ ligand-binding assay (Polarscreen PPAR Competitor Assay, Green); conditions: 0.001-10 μM, 4 hours
T2 construct: purchased Invitrogen
T2 sequence (P37231 238-503 limits assumed): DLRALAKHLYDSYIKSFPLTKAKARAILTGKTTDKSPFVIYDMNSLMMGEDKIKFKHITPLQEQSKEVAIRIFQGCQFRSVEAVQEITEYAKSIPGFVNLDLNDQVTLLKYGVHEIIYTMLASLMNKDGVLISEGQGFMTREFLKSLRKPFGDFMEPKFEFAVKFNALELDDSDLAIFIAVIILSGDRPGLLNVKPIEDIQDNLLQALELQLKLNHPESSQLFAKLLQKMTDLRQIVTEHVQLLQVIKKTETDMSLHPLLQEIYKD
Procedure: After 4 hours the ability of each compound to displace the fluorescent ligand, and therefore reduce the polarization values, was assessed using a fluorescent plate reader with 485 nm excitation and 535 nm emission. Results are a compilation of 4 independent experiments.

[9] = test system: A/California/09 (H1N1); assay: Post-exposure ABA by gavage, A/California/09 (H1N1) challenge in mice; assay type: in vivo, mouse
[10] = test system: NF-κB; assay: NF-κB reporter activity assay in RAW macrophages; conditions: data not shown
[11] = test system: RAR; assay: RAR reporter activity (data not shown); assay type: cell-based
[12] = test system: LPS-stimulated bone marrow-derived macrophages; assay: Inflammatory mediators in LPS-stimulated bone marrow-derived macrophages; assay type: cell-based, mouse; conditions: ABA 2.5 μM, 12 hours
Procedure: Bone Marrow-derived Macrophage (BMM) Cultures—Bone marrow cells from PPAR γ flfl; MMTV-Cre− (flfl-Cre−) and flfl-Cre+ mice were cultured in DMEM with M-CSF (50 ng/ml) for 7 days. Fresh media with M-CSF was added on day 3. […] Following differentiation macrophages were directly stimulated with LPS (100 ng/ml) as previously described for 12 hours (21). ABA was added to macrophage cultures at a concentration of 2.5 μM. The effect of ABA on LPS/toll-like receptor-4 (TLR4)-mediated prostaglandin E2 (PGE2), leukotriene B4 (LTB4) and monocyte chemoattractant protein-1 (MCP-1) production by macrophages was examined in cell supernatants 12 hours following the LPS challenge by using a commercial PGE2 EIA kit (Cayman Chemicals), a LTB4 competitive binding assay (R&D Systems) and a MCP-1 ELISA (R&D Systems), respectively, per the manufacturer's instructions.

[13] = mice lacking PPAR γ in immune cells

CC1=CC(=O)CC(C)(C)C1(O)/C=C/C(C)=C\C(=O)O (racemic) [ABA, abscisic acid]
antigen-specific lymphoproliferative recall responses ([1]; ABA diet 100 mg/kg, days 14 and 21 post-vaccination): increased | immunostimulatory effect on responses to influenza vaccination [1, 13]: attenuated | NF-κB p65 activity in nuclear extracts ([2]; 2.5 μM ABA, PPAR γ-expressing primary macrophages): significantly decreased | NF-κB activity ([2]; macrophages with loss of PPAR γ): further activation induced by ABA | iNOS mRNA expression ([3]; data not shown): no effect | effects of ABA on splenic gene expression [3, 13]: abrogated | NCOA6 mRNA expression ([3]; regardless of the LPS challenge): increased | Glut4 mRNA ([3]; spleen, LPS challenge): mitigated the LPS-mediated suppression | PPAR γ mRNA ([3]; spleen, LPS challenge): mitigated the LPS-mediated suppression | TNF-α mRNA ([3]; spleen, LPS challenge): suppressed LPS-mediated up-regulation | IL-2 production [4]: increases | lymphocyte proliferation [4]: increases | RXR reporter activity [5]: does not increase | PPAR γ activation [6]: activates PPAR γ | TLR4 expression levels by macrophages ([7]; LPS-treated PPAR γ-expressing mice): reduced | percentages of blood monocytes (F4/80+CD11b+) ([7]; LPS-treated immune cell-specific PPAR γ null mice, diet 36 days): significantly increased | TLR4 expression in CD8+ T cells ([7]; non-LPS treated mice): significantly reduced | TLR4 expression in MLN F4/80+CD11b+ macrophages ([7]; supplemented diet 36 days): significantly suppressed | ability to compete with the tracer for binding to the PPAR γ LBD [8]: not a PPAR γ ligand | weight loss and recovery ([9]; 100 mg/kg oral gavage once daily 10 days, from 4 hours post-infection): suppressed weight loss for both strains and accelerated recovery | glucose tolerance ([9]; lean and obese mice infected with H1N1): ameliorated glucose tolerance | glucose tolerance ([9]; uninfected control mice): ameliorated glucose tolerance | MCP-1 expression in white adipose tissue ([9]; uninfected mice): down-regulated MCP-1 expression | NF-κB reporter activity [10]: increased | RAR reporter activity [11]: does not increase | PGE2 secretion ([12]; EIA): significantly suppressed | MCP-1 secretion ([12]; ELISA): significantly suppressed
